{"source": "patent US10933053B2", "about": "“Treating infections with ceftolozane/tazobactam in subjects having impaired renal function” (MERCK SHARP & DOHME CORP., priority 2013, dated 2021)", "key": {"[1]": {"experiment": "clinical", "settings": "human, in vivo, t1/2, geometric mean", "description": "The extent of ceftolozane exposure increases with decreasing renal function. […] In subjects with moderate renal impairment, exposure approximately doubles relative to that in subjects with normal renal function.\nFor tazobactam, this estimated exposure from a dose of 125 mg in subjects with severe renal impairment not on hemodialysis is similar to that achieved with 500 mg tazobactam in subjects with normal renal function (23.8 μg·h/mL)."}, "[2]": {"settings": "threshold = 1/2 of the TOL/TAZ MIC; cited from earlier work"}, "[3]": {"test_system": "human plasma proteins", "experiment": "Binding to human plasma proteins", "assay_type": "in vitro ADME"}, "[4]": {"test_system": "P. aeruginosa", "settings": "neutropenic murine-thigh infection model; cited from earlier work"}, "[5]": {"experiment": "clinical", "settings": "human, in vivo", "excerpt": "The most common adverse reactions (≥5% in either indication) occurring in patients receiving CXA-201 were nausea, headache and diarrhea. Table 3 lists adverse reactions occurring in ≥1.0% of patients receiving CXA-201 in Phase 3 clinical trials.\nThe majority of adverse events were mild to moderate in severity, and the incidence of treatment-limiting adverse events was <2% in both treatment groups. Epidemiology and susceptibility of organisms isolated from patients with cUTI."}, "[6]": {"experiment": "clinical", "settings": "both, human, in vivo, 750 mg", "description": "This was a Phase 1, multicenter, prospective, open-label study of 750 mg ceftolozane/tazobactam (as CXA-201) administered IV in male and female adult subjects with severe renal impairment (estimated CLCR<30 mL/min) and subjects with end-stage renal disease (ESRD) on hemodialysis (HD). The primary objective of the study was to determine the PK profile of ceftolozane/tazobactam in subjects with severe renal impairment and subjects with ESRD on HD and to determine the effect of HD on the clearance of ceftolozane/tazobactam.\nSubjects with severe renal impairment received a single IV 1-hour infusion of 750 mg ceftolozane/tazobactam on Day 1. […] Subjects in this cohort received an IV dose of 750 mg ceftolozane/tazobactam as a 1 hour infusion immediately after their first HD session on Day 1 (post dialysis, approximately 72 hours prior to the next HD session) and a second dose of ceftolozane/tazobactam approximately 2 hours before their second HD session on Day 4 of the study. Infusion of ceftolozane/tazobactam was completed approximately 1 hour before the start of HD.\nSubjects in both cohorts had urine (if not anuric) and plasma samples collected for determination of levels of ceftolozane, tazobactam and the M1 metabolite of tazobactam; subjects in the ESRD on HD cohort also had dialysate fluid samples collected for PK assessment. Plasma, urine, and dialysate levels of ceftolozane, tazobactam, and its metabolite M1 collected over a prespecified interval were determined by LC/MS/MS assay."}}, "data": [{"compound": "C[C@]1(Cn2ccnn2)[C@H](C(=O)O)N2C(=O)C[C@H]2S1(=O)=O", "note": "[Tazobactam, tazobactam]", "values": [{"measurement": "half-life", "setting": "[1]", "result": 1.78, "unit": "h"}, {"measurement": "free-drug % T>threshold target", "setting": "[2]", "result": 65.9}, {"measurement": "binding to human plasma proteins", "setting": "[3]", "result": "~30", "unit": "%"}]}, {"compound": "Cn1c(N)c(NC(=O)NCCN)c[n+]1CC1=C(C(=O)O)N2C(=O)[C@@H](NC(=O)/C(=N\\OC(C)(C)C(=O)O)c3nsc(N)n3)[C@H]2SC1", "note": "[Ceftolozane, (6R,7R)-3-[(5-amino-4-{[(2-aminoethyl)carbamoyl]amino}-1-methyl-1H-pyrazol-2-ium-2-yl)methyl]-7-({(2Z)-2-(5-amino-1,2,4-thiadiazol-3-yl)-2-[(1-carboxy-1-methylethoxy)imino]acetyl}amino)-8-oxo-5-thia-1-azabicyclo[4.2.0]oct-2-ene-2-carboxylate]", "values": [{"measurement": "free-drug % T>MIC target associated with 1-log10 CFU reduction from baseline (bactericidal, 1-log kill)", "setting": "[4]", "result": 32.2, "unit": "%"}, {"measurement": "free-drug % T>MIC target associated with net bacterial stasis", "setting": "[4]", "result": 24.8, "unit": "%"}, {"measurement": "half-life", "setting": "[1]", "result": 5.85, "unit": "h"}, {"measurement": "AUC", "setting": "[5]", "result": 1100, "unit": "µg·h/mL"}, {"measurement": "daily AUC previously shown to be safe and tolerable in humans", "setting": "[5]", "result": 1100, "unit": "µg·h/mL"}, {"measurement": "AUC(0-inf)", "setting": "[6]", "result": 537, "unit": "µg·h/mL"}, {"measurement": "AUC(0-t)", "setting": "[6]", "result": 511, "unit": "µg·h/mL"}, {"measurement": "Vd", "setting": "[6]", "result": 13.8, "unit": "L"}, {"measurement": "clearance", "setting": "[6]", "result": 16.7, "unit": "mL/min"}, {"measurement": "half-life", "setting": "[6]", "result": 11.1, "unit": "h"}]}]}
